Laboratory results taken from patent US5962525A, “6,7-disubstituted-2-aminotetralines active as immunomodulators and pharmaceutical compositions containing same” (Sigma-Tau, priority 1990, dated 1999).
Read-outs that look alike come from different tables or passages of the source.

Experiments:
[1] = test system: murine peritoneal exudate cells (PEC); experiment: "In vitro-ex vivo" effect on the phagocytic activity of exudate peritoneal cells (SRBC phagocytosis); design: species or system mouse (B6 D2 F1); conditions: 25 mg/kg/day i.p.
Description: Assessment of the "in vitro-ex vivo" effect of ST 557, ST 563, ST 564, ST 570, ST 608 and ST 626 on the phagocytic activity of exudate peritoneal cells (PEC)
Male B6 D2 F1 mice aged 6-8 weeks (5 animals each group) were used.
The compounds were administered i.p. (25 mg/kg/day), ST 557, ST 563 and ST 626 were also administered per os (100 mg/kg/day) from day -5 to day -1 (PEC harvesting at day 0).
The experimental procedure was substantially the same as that described by Williams et al., in "Methods in Immunology and Immunochemistry", Acad. Press. 5: 261 (1976).
In particular, 24 hours following the end of the treatment, PECs from each experimental group were harvested, pooled and their concentration was adjusted to 4×10^6 cells/ml.
To volumes of 250 μl of each PEC sample were added equal volumes of 0.4% SRBC (Sheep Red Blood Cells) opsonized with hyperimmune serum.
The samples (duplicate) were incubated for 1 hour and then subjected to hypotonic shock in order to remove the non-phagocytized SRBC. After restoring the osmolarity, the phagocytes were cytocentrifuged, stained with a differential dye and observed under the microscope.
The results were expressed as:
(a) percentage of cells that have phagocytized with respect to 100 phagocytizing cells;
(b) total number of phagocytized SRBC;
(c) average number of SRBC in each phagocyte.

splenocytes = experiment: "In vitro-ex vivo" effect on the mytogen (PHA, ConA, LPS)-induced splenocyte proliferation in mice immunodepressed with cyclophosphamide; design: species or system mouse (B6 D2 F1); conditions: for S.I. (stimulation index): with respect to the immunodepressed controls; for AUC (area under curve): immunodepressed
Description: Assessment of the "in vitro-ex vivo" effect of ST 557, ST 563 ST 564 on the mytogen (PHA, ConA, LPS)-Induced splenocyte proliferation in mice Immunodepressed with cyclotohosphamide
Male B6 D2 F1 mice aged 7-9 weeks (5 mice per group) were used.
The immunosuppressor (cyclophosphamide) was administered i.p. at the dose of 100 mg/kg at day -5. The compounds were administered i.p. (25 mg/kg/day) and per os (100 mg/kg/day) from day -5 to day -1 (spleen excision at day 0).
Splenocyte proliferation was induced by three different mytogens: PHA and ConA active on T-lymphocytes, and LPS active on B-lymphocytes. Each mytogen was tested at three different concentrations (suboptimal, optimal and superoptimal) corresponding to 0.5, 4 and 6 mcg/ml/well for PHA; 0.5, 4 and 8 mcg/ml/well for ConA and 0.5, 150 and 500 mcg/ml/well for LPS.
The experimental procedure is identical to that described in test 4.
The results are expressed as both AUC (see test 4) and S.I. In order to assess the efficacy of the immunosuppressor and the activity of the tested compounds, S.I. has been determined both for the immunodepressed controls (with respect to the normal controls) and for the immunodepressed treated animals (with respect to the immunodepressed controls), respectively. [formula]

[2] = Tolerability after oral or intravenous administration; design: species or system mouse (Swiss albino); conditions: mouse, in vivo, 7 days observation, read-out: Tolerability, dose
Description: The test was conducted in male Swiss albino mice weighing 22-24 g.
A group of animals (4 animals/dose) which had been kept fasting for 18 hours, were orally administered the compounds ST 557, ST 563, ST 564 and ST 570 dissolved in twice distilled water.
A further group of animals, which had free access to food and water, were administered intravenously the same compounds dissolved in saline it pH 7. All the animals were kept under observation for 7 days.

LD50, intravenous = conditions: mouse, in vivo, 0.9% saline
Description: LD50 was determined according to Carrol S. Weil's method, Biometrics, pages 249-263 (1952) in male Swiss albino mice weighing 22-24 g.
The various compounds dissolved in 0.9% saline were administered intravenously.

[3] = test system: murine peritoneal macrophages; tumor targets Daudi and CEM-CM3; experiment: "In vitro-ex vivo" effect on the cytotoxic activity of peritoneal macrophages (lysis of 3H-TdR labelled tumor cells); design: species or system mouse (B6 D2 F1, C57B16); tumor targets human
Description: Assessment of the "in vitro-ex vivo" effect of ST 557, ST 563, ST 570 and ST 626 on the cytotoxic activity of peritoneal macrophages (M)
Male hybrid B6 D2 F1 aged 7-9 weeks and male inbred mice C57B16 aged 8 weeks were used (4 animals/group).
All the compounds were administered i.p. (25 mg/kg/day). ST 557 was also administered per os (100 mg/kg/day) from day -5 to day -1 (peritoneal exudate cell [PEC] harvesting at day 0).
PEC were obtained from sacrificed animals, 24 hours following the end of treatment, via repeated washings of the abdominal cavity. The peritoneal exudates obtained from each group of animals were pooled.
The macrophage percentage was assessed by counting in a Burker chamber; cell suspensions (concentration=2×10^6 M/ml) were prepared.
The macrophage cytotoxic activity was assessed using the following two tumor cell lines as targets: Daudi, derived from a human lymphoblastoma and CEM-CM3, derived from human lymphoblastic leukemia (both lines are disclosed in ATCC--American Type Culture Collection--Cell lines of hybridoma, 5th Ed.--1985).
The experimental procedure is substantially the same as that described by Herscowitz, H. B. (1981)--Manual of Macrophage Methodology. Dekker M, Editor.
In particular, samples of cell lines were labelled with ^3 H-TdR (tritiated thymidine) and their concentration was adjusted to 5×10^4 cells/ml. They were then added to the macrophage preparations (using 96-well microtiter plates) and the volumes were adjusted so as to obtain Effector (macrophage)/Target (tumor cell) ratios of 20:1; 40:1 and 80:1 in an overall volume of 0.3 ml/well.
Three replicates for each sample were prepared; after 48 and 72 hours of incubation at 37° C. in 5% CO2. Aliquots of 0.1 ml of supernatant were drawn out from each well and counted in a β-counter.
The macrophage cytotoxic activity results in a tumor cell lysis that causes the release of the radioactivity incorporated by the cells into the supernatant.
Based on the βeta-counter data (in cpm) this activity is expressed as the percentage of radioactivity released following lysis with respect to the radioactivity incorporated by the tumor cells.
The relevant formulas are as follows: [formula]
The measures carried out on the samples account for a certain degree of lysis occurring spontaneously in cultured tumor cells not exposed to macrophages. Total radioactivity incorporated by the tumor cells is calculated by conducting a lysis with 1% SDS in distilled water.

[4] = test system: peritoneal macrophages of treated mice; target tumor cells; experiment: "In vitro-ex vivo" effect on the cytostatic activity of peritoneal macrophages; design: species or system mouse (B6 D2 F1); tumor targets human
Description: Assessment of the "in vitro-ex vivo" effect of ST 557, ST 563 and ST 570 on the cytostatic activity of peritoneal macrophages
Male B6 D2 F1 mice aged 7-9 weeks (5 animals per group) were used.
The compounds were administered i.p. (25 mg/kg/day), ST 557 and ST 563 were also administered per os (100 mg/kg/day) from day -5 to day -1 (peritoneal cell harvesting at day 0).
The macrophages and target tumor cell lines were prepared as in test 1 and their concentrations were adjusted to 1×10^6 M/ml and 5×10^4 cell/ml, respectively.
Volumes of tumor cells were added to the macrophage preparations so as to obtain Effector/Target ratios of 10:1, 20:1 and 40:1.
Each sample was pulsed with ^3 H-TdR for 18 hours in order to label the tumor cells, which were then collected on filters and counted in a beta-counter.
The macrophage cytostatic activity is expressed as percentage inhibition of tumor cell replication, by assessing the radioactivity incorporated by the tumor cells in each sample with respect to the maximum radioactivity incorporated by a sample consisting of tumor cells only. [formula]

[5] = test system: murine peritoneal exudate cells (PEC); experiment: "In vitro-ex vivo" effect on the phagocytic activity of exudate peritoneal cells (SRBC phagocytosis); design: species or system mouse (B6 D2 F1); conditions: 26 mg/kg/day i.p. (so in the source)
[6] = average number of SRBC in each phagocyte

In the case of `COc1ccc(OCC(O)CNC2CCc3cc(OC)c(OC)cc3C2)cc1` (centres unmarked) [ST 564, 2-[(N-2-hydroxy-3-(4-methoxyphenoxy)propyl)amino]-6,7-dimethoxytetraline], the Fagocytizing cells [1] is reported as 40.0%, the “Total n° SRBC phagocytized” value [1] is reported as 126.6 and the “SRBC per phagocytizing cell” value [1, 6] is reported as 3.2. The “S.I. (stimulation index)” value (splenocytes; ConA, 25 mg/kg/day i.p.) was 1.01, the “S.I. (stimulation index)” value (splenocytes; ConA, 100 mg/kg/day os) was 0.78 and the “AUC (area under curve)” value (splenocytes; ConA, 25 mg/kg/day i.p.) was 514 ± 10 ×10^-3. For the same compound, the “AUC (area under curve)” value (splenocytes; ConA, 100 mg/kg/day os) was 577 ± 41 ×10^-3, the “S.I. (stimulation index)” value (splenocytes; LPS, 25 mg/kg/day i.p.) was 2.74 and the “S.I. (stimulation index)” value (splenocytes; LPS, 100 mg/kg/day os) was 0.65. The “AUC (area under curve)” value (splenocytes; LPS, 25 mg/kg/day i.p.) was 2533 ± 314 ×10^-3, the “AUC (area under curve)” value (splenocytes; LPS, 100 mg/kg/day os) was 3023 ± 257 ×10^-3 and the “S.I. (stimulation index)” value (splenocytes; PHA, 25 mg/kg/day i.p.) was 2.05. For the same compound, the “AUC (area under curve)” value (splenocytes; PHA, 25 mg/kg/day i.p.) was 205 ± 18 ×10^-3, the MTD at 168 h ([2]; iv) was > 20 mg/kg and the MTD at 168 h ([2]; po, os, fasting 18 hours) was > 50 mg/kg. For the same compound, the LD50 (LD50, intravenous) was 44.5 mg/kg.
For `CCN(CC(O)c1ccccc1)C1CCc2cc(OC)c(OC)cc2C1` (centres unmarked) [ST 570, 2-[(N-ethyl, N-2-hydroxy-2-phenylethyl)amino]-6,7-dimethoxytetraline], the “% lysis of tumor target” value ([3]; 48 hours, E/T 20:1, 25 mg/kg/day i.p., B6 D2 F1) was 14.0 ± 0.7%, the “% lysis of tumor target” value ([3]; 48 hours, E/T 20:1, 25 mg/kg/day i.p., repeated experiment, B6 D2 F1) was 9.0 ± 0.4% and the “% lysis of tumor target” value ([3]; 48 hours, E/T 20:1, 25 mg/kg/day i.p., repeated experiment, C57B16 mice) was 8.8 ± 1.2%. The “% lysis of tumor target” value ([3]; 48 hours, E/T 40:1, 25 mg/kg/day i.p., B6 D2 F1) was 34.7 ± 1.2%, the “% lysis of tumor target” value ([3]; 48 hours, E/T 40:1, 25 mg/kg/day i.p., repeated experiment, B6 D2 F1) was 10.9 ± 1.0% and the “% lysis of tumor target” value ([3]; 48 hours, E/T 40:1, 25 mg/kg/day i.p., repeated experiment, C57B16 mice) was 13.0 ± 0.5%. The “% lysis of tumor target” value ([3]; 48 hours, E/T 80:1, 25 mg/kg/day i.p., repeated experiment, B6 D2 F1) was 19.0 ± 1.0%, the “% lysis of tumor target” value ([3]; 48 hours, E/T 80:1, 25 mg/kg/day i.p., repeated experiment, C57B16 mice) was 14.6 ± 0.6% and the “% lysis of tumor target” value ([3]; 72 hours, E/T 20:1, 25 mg/kg/day i.p., B6 D2 F1) was 19.3 ± 0.7%. The “% lysis of tumor target” value ([3]; 72 hours, E/T 20:1, 25 mg/kg/day i.p., repeated experiment, B6 D2 F1) was 13.2 ± 0.2%, the “% lysis of tumor target” value ([3]; 72 hours, E/T 20:1, 25 mg/kg/day i.p., repeated experiment, C57B16 mice) was 10.8 ± 1.5% and the “% lysis of tumor target” value ([3]; 72 hours, E/T 40:1, 25 mg/kg/day i.p., B6 D2 F1) was 45.4 ± 2.1%. For the same compound, the “% lysis of tumor target” value ([3]; 72 hours, E/T 40:1, 25 mg/kg/day i.p., repeated experiment, B6 D2 F1) was 15.7 ± 0.8%, the “% lysis of tumor target” value ([3]; 72 hours, E/T 40:1, 25 mg/kg/day i.p., repeated experiment, C57B16 mice) was 14.9 ± 0.3% and the “% lysis of tumor target” value ([3]; 72 hours, E/T 80:1, 25 mg/kg/day i.p., repeated experiment, B6 D2 F1) was 25.3 ± 1.0%. The “% lysis of tumor target” value ([3]; 72 hours, E/T 80:1, 25 mg/kg/day i.p., repeated experiment, C57B16 mice) was 16.2 ± 0.8%, the “% of inhibition of target tumor growth” value ([4]; E/T 20:1, 25 mg/kg/day i.p.) was 38.3 ± 2.5% and the “% of inhibition of target tumor growth” value ([4]; E/T 40:1, 25 mg/kg/day i.p.) was 71.0 ± 2.4%. For the same compound, the MTD at 168 h ([2]; iv) was > 20 mg/kg, the MTD at 168 h ([2]; po, os, fasting 18 hours) was > 50 mg/kg and the Fagocytizing cells [5] was 41.0%. The “SRBC per phagocytizing cell” value [5, 6] was 3.3.
